Laboratory results reported in ChEMBL document CHEMBL5726493, “Compositions and methods of modulating short-chain dehydrogenase activity” (2017).

Target: T1, 15-hydroxyprostaglandin dehydrogenase [NAD(+)] (Homo sapiens, UniProt P15428)
T1 sequence (P15428 whole entry): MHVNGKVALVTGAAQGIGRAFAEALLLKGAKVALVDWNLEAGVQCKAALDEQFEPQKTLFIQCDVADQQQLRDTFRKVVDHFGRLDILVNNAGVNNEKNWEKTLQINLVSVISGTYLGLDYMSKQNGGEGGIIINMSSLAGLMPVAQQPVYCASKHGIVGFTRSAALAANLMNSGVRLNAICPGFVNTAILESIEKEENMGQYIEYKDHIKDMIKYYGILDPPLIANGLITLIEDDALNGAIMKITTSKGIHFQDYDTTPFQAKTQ
Assay: In Vitro Assay: Each compound for inhibiting enzymatic activity of recombinant 15-PGDH in an in vitro assay.

Structure (SMILES)	IC50 [nM]
CCCC[S+]([O-])c1sc2nc(-c3nccs3)cc(-c3cccc(C(=O)NCCN(C)C)c3)c2c1N (configuration not stated)	19.3
CCCC[S+]([O-])c1sc2nc(-c3nccs3)cc(-c3cccc(C(=O)O)c3)c2c1N (configuration not stated)	20.2
CCCC[S+]([O-])c1sc2nc(-c3nccs3)cc(-c3ccc(OCC(=O)OC)cc3)c2c1N (configuration not stated)	8.53
CCCC[S+]([O-])c1sc2nc(-c3nccs3)cc(-c3ccc(OCC(=O)O)cc3)c2c1N (configuration not stated)	2.71
CCCC[S+]([O-])c1sc2nc(-c3nccs3)cc(-c3cccc(C(=O)N4CCN(C)CC4)c3)c2c1N (configuration not stated)	36.4
CCCC[S+]([O-])c1sc2nc(-c3nccs3)cc(-c3ccc(CN(C)C)cc3)c2c1N (configuration not stated)	5.7
C=CCNC(=O)c1cccc(-c2cc(-c3nccs3)nc3sc([S+]([O-])CCCC)c(N)c23)c1 (configuration not stated)	2.5
